Measurements: PubChem BioAssay AID1963835 (Molecular Pharmacology Branch, DTP, NCI, 2024)

Tested on: 699152-130-R-J1-PDC complex spheroid viability
Test: Anticancer human tumor 699152-130-R-J1-PDC patient-derived pancreatic carcinoma cell line growth inhibition [POLQ]
Conditions: for IC50: curve of first compound; for viability, T/C: stronger effect = lower value
Procedure, shortened: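 Complex spheroid viability model combining PDC tumour cells with endothelial (HUVEC) and MSC stromal cells. Novobiocin, ART-558 or RP6685 were tested singly and in combination with standard and investigational anticancer drugs. Each was titrated in half-log steps from near clinical Cmax, or from 10 microM where Cmax was unknown.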

[1] = second compound 0.0316 µM, first compound 0.0316 µM
[2] = second compound 0.0316 µM, first compound 0.1 µM
[3] = second compound 0.0316 µM, first compound 0.316 µM
[4] = second compound 0.0316 µM, first compound 1 µM
[5] = second compound 0.0316 µM, first compound 3.16 µM
[6] = second compound 0.0316 µM, first compound 10 µM
[7] = second compound 0.1 µM, first compound 0.0316 µM
[8] = second compound 0.1 µM, first compound 0.1 µM
[9] = second compound 0.1 µM, first compound 0.316 µM
[10] = second compound 0.1 µM, first compound 1 µM
[11] = second compound 0.1 µM, first compound 3.16 µM
[12] = second compound 0.1 µM, first compound 10 µM
[13] = second compound 0.316 µM, first compound 0.0316 µM
[14] = second compound 0.316 µM, first compound 0.1 µM
[15] = second compound 0.316 µM, first compound 0.316 µM
[16] = second compound 0.316 µM, first compound 1 µM
[17] = second compound 0.316 µM, first compound 3.16 µM
[18] = second compound 0.316 µM, first compound 10 µM
[19] = second compound 1 µM, first compound 0.0316 µM
[20] = second compound 1 µM, first compound 0.1 µM
[21] = second compound 1 µM, first compound 0.316 µM
[22] = second compound 1 µM, first compound 1 µM
[23] = second compound 1 µM, first compound 3.16 µM
[24] = second compound 1 µM, first compound 10 µM
[25] = second compound 3.16 µM, first compound 0.0316 µM
[26] = second compound 3.16 µM, first compound 0.1 µM
[27] = second compound 3.16 µM, first compound 0.316 µM
[28] = second compound 3.16 µM, first compound 1 µM
[29] = second compound 3.16 µM, first compound 3.16 µM
[30] = second compound 3.16 µM, first compound 10 µM
[31] = second compound 10 µM, first compound 0.0316 µM
[32] = second compound 10 µM, first compound 0.1 µM
[33] = second compound 10 µM, first compound 0.316 µM
[34] = second compound 10 µM, first compound 1 µM
[35] = second compound 10 µM, first compound 3.16 µM
[36] = second compound 10 µM, first compound 10 µM
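Also: spheroids exposed to agents for 7 days before viability reading.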
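For viability, T/C in this document: percent of DMSO vehicle control viability so 100% = vehicle and 0% = no viable signal.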

SMILES: CC(C)n1c(=O)n(C)c2cnc3cc(F)c(-c4ccc(OCCCN5CCCCC5)nc4)cc3c21 + COC1C(OC(N)=O)C(O)C(Oc2ccc3c(O)c(NC(=O)c4ccc(O)c(CC=C(C)C)c4)c(=O)oc3c2C)OC1(C)C
- IC50 (second compound 0.0316 µM): < 0.0316 µM
- IC50 (second compound 0.1 µM): < 0.0316 µM
- IC50 (second compound 0.316 µM): < 0.0316 µM
- IC50 (second compound 1 µM): < 0.0316 µM
- IC50 (second compound 3.16 µM): < 0.0316 µM
- IC50 (second compound 10 µM): < 0.0316 µM
- viability, T/C [1]: 38.8%
- viability, T/C [2]: 44.1%
- viability, T/C [3]: 39.9%
- viability, T/C [4]: 47.7%
- viability, T/C [5]: 46.4%
- viability, T/C [6]: 45.8%
- viability, T/C [7]: 34.7%
- viability, T/C [8]: 40.6%
- viability, T/C [9]: 41.8%
- viability, T/C [10]: 41%
- viability, T/C [11]: 38.9%
- viability, T/C [12]: 39.9%
- viability, T/C [13]: 38.9%
- viability, T/C [14]: 39.2%
- viability, T/C [15]: 46.5%
- viability, T/C [16]: 44.8%
- viability, T/C [17]: 42%
- viability, T/C [18]: 43.5%
- viability, T/C [19]: 40.9%
- viability, T/C [20]: 44.4%
- viability, T/C [21]: 40.4%
- viability, T/C [22]: 39.6%
- viability, T/C [23]: 41.8%
- viability, T/C [24]: 41.8%
- viability, T/C [25]: 40.5%
- viability, T/C [26]: 41.9%
- viability, T/C [27]: 41.7%
- viability, T/C [28]: 47.2%
- viability, T/C [29]: 42.6%
- viability, T/C [30]: 41.3%
- viability, T/C [31]: 48.5%
- viability, T/C [32]: 39.8%
- viability, T/C [33]: 37.8%
- viability, T/C [34]: 38.3%
- viability, T/C [35]: 44.6%
- viability, T/C [36]: 37.5%

SMILES: CCc1cc2c(N3CCc4c(cc(Cn5ccnc5)cc4-c4cn(C)nc4C(F)(F)F)C3=O)ccnc2c(OC)n1 + Nc1ccc(C#CCN(C(=O)Cc2ncc(C(F)(F)F)cc2C(F)(F)F)c2ccc(F)cc2)nn1
- IC50 (second compound 0.0316 µM): > 10 µM
- IC50 (second compound 0.1 µM): > 10 µM
- IC50 (second compound 0.316 µM): > 10 µM
- IC50 (second compound 1 µM): > 10 µM
- IC50 (second compound 3.16 µM): > 10 µM
- IC50 (second compound 10 µM): > 10 µM
- viability, T/C [1]: 93.3%
- viability, T/C [2]: 87.5%
- viability, T/C [3]: 91.8%
- viability, T/C [4]: 89.9%
- viability, T/C [5]: 102%
- viability, T/C [6]: 99.6%
- viability, T/C [7]: 88.4%
- viability, T/C [8]: 90%
- viability, T/C [9]: 89.4%
- viability, T/C [10]: 98%
- viability, T/C [11]: 101%
- viability, T/C [12]: 100%
- viability, T/C [13]: 86.2%
- viability, T/C [14]: 93.5%
- viability, T/C [15]: 93.6%
- viability, T/C [16]: 95.4%
- viability, T/C [17]: 106%
- viability, T/C [18]: 99.1%
- viability, T/C [19]: 92.5%
- viability, T/C [20]: 91.2%
- viability, T/C [21]: 107%
- viability, T/C [22]: 94.7%
- viability, T/C [23]: 106%
- viability, T/C [24]: 98.8%
- viability, T/C [25]: 88%
- viability, T/C [26]: 88.5%
- viability, T/C [27]: 96.4%
- viability, T/C [28]: 102%
- viability, T/C [29]: 107%
- viability, T/C [30]: 104%
- viability, T/C [31]: 101%
- viability, T/C [32]: 102%
- viability, T/C [33]: 111%
- viability, T/C [34]: 111%
- viability, T/C [35]: 109%
- viability, T/C [36]: 110%

SMILES: COc1cccc(OCCCN)c1-c1cc(Nc2cnc(C#N)cn2)n[nH]1 + Nc1ccc(C#CCN(C(=O)Cc2ncc(C(F)(F)F)cc2C(F)(F)F)c2ccc(F)cc2)nn1
- IC50 (second compound 0.0316 µM): > 1 µM
- IC50 (second compound 0.1 µM): > 1 µM
- IC50 (second compound 0.316 µM): > 1 µM
- IC50 (second compound 1 µM): > 1 µM
- IC50 (second compound 3.16 µM): > 1 µM
- IC50 (second compound 10 µM): > 1 µM
- viability, T/C (second compound 0.0316 µM, first compound 0.00316 µM): 90.3%
- viability, T/C (second compound 0.0316 µM, first compound 0.01 µM): 101%
- viability, T/C [1]: 72.8%
- viability, T/C [2]: 64.2%
- viability, T/C [3]: 62.4%
- viability, T/C [4]: 65%
- viability, T/C (second compound 0.1 µM, first compound 0.00316 µM): 92.2%
- viability, T/C (second compound 0.1 µM, first compound 0.01 µM): 101%
- viability, T/C [7]: 73.4%
- viability, T/C [8]: 59.3%
- viability, T/C [9]: 65.8%
- viability, T/C [10]: 56.1%
- viability, T/C (second compound 0.316 µM, first compound 0.00316 µM): 99.3%
- viability, T/C (second compound 0.316 µM, first compound 0.01 µM): 93.8%
- viability, T/C [13]: 74.8%
- viability, T/C [14]: 68.6%
- viability, T/C [15]: 60.8%
- viability, T/C [16]: 59.9%
- viability, T/C (second compound 1 µM, first compound 0.00316 µM): 111%
- viability, T/C (second compound 1 µM, first compound 0.01 µM): 100%
- viability, T/C [19]: 79.6%
- viability, T/C [20]: 69%
- viability, T/C [21]: 62.2%
- viability, T/C [22]: 55.8%
- viability, T/C (second compound 3.16 µM, first compound 0.00316 µM): 109%
- viability, T/C (second compound 3.16 µM, first compound 0.01 µM): 94.4%
- viability, T/C [25]: 70.1%
- viability, T/C [26]: 60.6%
- viability, T/C [27]: 66.1%
- viability, T/C [28]: 65%
- viability, T/C (second compound 10 µM, first compound 0.00316 µM): 121%
- viability, T/C (second compound 10 µM, first compound 0.01 µM): 92.3%
- viability, T/C [31]: 71.8%
- viability, T/C [32]: 64.7%
- viability, T/C [33]: 66.3%
- viability, T/C [34]: 60.5%
